Results from ChEMBL document CHEMBL1201862, “PubChem BioAssay data set” (2004).
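Cells were grown in 96-well plates and exposed to each compound for 48 hours at five concentrations; endpoints were interpolated linearly between bracketing concentrations, or set to the highest concentration if not reached. Here, GI50 denotes the concentration required for 50% inhibition of growth.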 The source made the active and inactive calls. No stated cut-off is given here; in the data, active = GI50 up to about 1.1 µM and inactive = higher.

Tests used:
Test in all cases: DTP human tumour cell line panel, 48 h
[1] = test system: HT-29
[2] = test system: DU-145
[3] = test system: HCT-116
[4] = test system: Malme-3M
[5] = test system: HCC 2998
[6] = test system: SF-268
[7] = test system: A498
[8] = test system: PC-3
[9] = test system: TK-10
[10] = test system: SW-620
[11] = test system: OVCAR-4
[12] = test system: BT-549
[13] = test system: 786-0
[14] = test system: UACC-257
[15] = test system: NCI-H460
[16] = test system: COLO 205
[17] = test system: T47D
[18] = test system: RXF 393
[19] = test system: NCI-H522
[20] = test system: K562
[21] = test system: SN12C
[22] = test system: NCI-H226
[23] = test system: LOX IMVI
[24] = test system: OVCAR-8
[25] = test system: ACHN
[26] = test system: RPMI-8226
[27] = test system: MDA-N
[28] = test system: SK-MEL-5
[29] = test system: HCT-15
[30] = test system: SF-539
[31] = test system: SK-MEL-28
[32] = test system: SK-MEL-2
[33] = test system: SF-295
[34] = test system: U-251
[35] = test system: MDA-MB-435
[36] = test system: MCF7
[37] = test system: NCI/ADR-RES
[38] = test system: MDA-MB-231
[39] = test system: SNB-19
[40] = test system: KM12
[41] = test system: MOLT-4
[42] = test system: NCI-H23
[43] = test system: SR
[44] = test system: UACC-62
[45] = test system: CAKI-1
[46] = test system: OVCAR-5
[47] = test system: SNB-75
[48] = test system: A549
[49] = test system: UO-31
[50] = test system: CCRF-CEM
[51] = test system: EKVX
[52] = test system: SK-OV-3
[53] = test system: IGROV-1
[54] = test system: HOP-62
[55] = test system: M14
[56] = test system: Hs-578T
[57] = test system: HOP-92
[58] = test system: OVCAR-3
[59] = test system: HL-60

N#Cc1c(-c2ccc(Cl)cc2)cc(-c2ccc(Nc3ccnc4cc(C(F)(F)F)ccc34)cc2)nc1N was tested, and the GI50 [1] was 16.6 µM (inactive), the GI50 [2] was 28.1 µM (inactive) and the GI50 [3] was 10.6 µM (inactive). For the same compound, the GI50 [4] was 63.2 µM (inactive), the GI50 [5] was 64.3 µM (inactive) and the GI50 [6] was 39.1 µM (inactive). The GI50 [7] was 19.6 µM (inactive), the GI50 [8] was 32.9 µM (inactive) and the GI50 [9] was 31.2 µM (inactive). For the same compound, the GI50 [10] was 32.3 µM (inactive), the GI50 [11] was 17.9 µM (inactive) and the GI50 [12] was 63 µM (inactive). The GI50 [13] was 15 µM (inactive), the GI50 [14] was > 100 µM (inactive) and the GI50 [15] was 32.8 µM (inactive). For the same compound, the GI50 [16] was 29.4 µM (inactive), the GI50 [17] was 18.5 µM (inactive) and the GI50 [18] was 22.1 µM (inactive). For the same compound, the GI50 [19] was 31.4 µM (inactive), the GI50 [20] was 14.5 µM (inactive) and the GI50 [21] was 22 µM (inactive). For the same compound, the GI50 [22] was 24.7 µM (inactive), the GI50 [23] was 3.72 µM (inactive) and the GI50 [24] was > 100 µM (inactive). The GI50 [25] was 17.4 µM (inactive), the GI50 [26] was 23.4 µM (inactive) and the GI50 [27] was 32.8 µM (inactive). The GI50 [28] was 25.3 µM (inactive), the GI50 [29] was 17.9 µM and the GI50 [30] was 18.5 µM (inactive). For the same compound, the GI50 [31] was 22.1 µM (inactive), the GI50 [32] was 27.8 µM (inactive) and the GI50 [33] was 19.3 µM (inactive). For the same compound, the GI50 [34] was 18.7 µM (inactive), the GI50 [35] was 19.5 µM (inactive) and the GI50 [36] was 28.8 µM (inactive). The GI50 [37] was > 100 µM (inactive), the GI50 [38] was 28.7 µM (inactive) and the GI50 [39] was 16.9 µM (inactive). For the same compound, the GI50 [40] was > 100 µM (inactive), the GI50 [41] was 14.6 µM (inactive) and the GI50 [42] was 57.5 µM (inactive). For the same compound, the GI50 [43] was 3.74 µM (inactive), the GI50 [44] was 22.3 µM (inactive) and the GI50 [45] was 57.7 µM (inactive). The GI50 [46] was 30.2 µM (inactive), the GI50 [47] was 23 µM (inactive) and the GI50 [48] was 83.4 µM (inactive). The GI50 [49] was 15.7 µM (inactive), the GI50 [50] was 12.4 µM (inactive) and the GI50 [51] was 67 µM (inactive). The GI50 [52] was 39.6 µM (inactive), the GI50 [53] was 29.2 µM (inactive) and the GI50 [54] was 19.7 µM (inactive). For the same compound, the GI50 [55] was 19.5 µM (inactive).
For CCN(CC)CCNC(=O)c1cc2cc(NC(=O)c3cc4cc(NC(=O)c5cc6cc([N+](=O)[O-])ccc6[nH]5)ccc4[nH]3)ccc2[nH]1, the GI50 [1] was > 100 µM (inactive), the GI50 [56] was > 100 µM (inactive) and the GI50 [2] was > 100 µM (inactive). For the same compound, the GI50 [4] was > 100 µM (inactive), the GI50 [5] was > 100 µM (inactive) and the GI50 [6] was > 100 µM (inactive). The GI50 [7] was > 100 µM (inactive), the GI50 [8] was > 100 µM (inactive) and the GI50 [9] was > 100 µM (inactive). For the same compound, the GI50 [10] was > 100 µM (inactive), the GI50 [11] was > 100 µM (inactive) and the GI50 [12] was > 100 µM (inactive). The GI50 [13] was > 100 µM (inactive), the GI50 [14] was > 100 µM (inactive) and the GI50 [15] was > 100 µM (inactive). For the same compound, the GI50 [16] was > 100 µM (inactive), the GI50 [17] was > 100 µM (inactive) and the GI50 [18] was > 100 µM (inactive). For the same compound, the GI50 [19] was > 100 µM (inactive), the GI50 [20] was > 100 µM (inactive) and the GI50 [21] was > 100 µM (inactive). For the same compound, the GI50 [57] was > 100 µM (inactive), the GI50 [22] was > 100 µM (inactive) and the GI50 [23] was > 100 µM (inactive). The GI50 [24] was > 100 µM (inactive), the GI50 [25] was > 100 µM (inactive) and the GI50 [58] was > 100 µM (inactive). The GI50 [26] was < 0.01 µM (active), the GI50 [28] was > 100 µM (inactive) and the GI50 [29] was > 100 µM. The GI50 [31] was > 100 µM (inactive), the GI50 [32] was > 100 µM (inactive) and the GI50 [33] was > 100 µM (inactive). For the same compound, the GI50 [34] was > 100 µM (inactive), the GI50 [35] was > 100 µM (inactive) and the GI50 [37] was > 100 µM (inactive). The GI50 [38] was > 100 µM (inactive), the GI50 [39] was > 100 µM (inactive) and the GI50 [40] was > 100 µM (inactive). For the same compound, the GI50 [41] was < 0.01 µM (active), the GI50 [42] was > 100 µM (inactive) and the GI50 [43] was < 0.01 µM (active). The GI50 [44] was > 100 µM (inactive), the GI50 [45] was > 100 µM (inactive) and the GI50 [46] was > 100 µM (inactive). The GI50 [47] was > 100 µM (inactive), the GI50 [48] was > 100 µM (inactive) and the GI50 [49] was > 100 µM (inactive). For the same compound, the GI50 [50] was 10.6 µM (inactive), the GI50 [51] was > 100 µM (inactive) and the GI50 [52] was > 100 µM (inactive). For the same compound, the GI50 [53] was > 100 µM (inactive), the GI50 [54] was > 100 µM (inactive) and the GI50 [55] was > 100 µM (inactive).
With Nc1cc2ncnc(Nc3cccc(Br)c3)c2cn1 the GI50 [1] was 31.4 µM (inactive), the GI50 [56] was 33.7 µM (inactive) and the GI50 [3] was 49.5 µM (inactive). The GI50 [4] was > 100 µM (inactive), the GI50 [6] was 58.2 µM (inactive) and the GI50 [7] was 3.61 µM (inactive). For the same compound, the GI50 [8] was 28.5 µM (inactive), the GI50 [59] was > 100 µM (inactive) and the GI50 [9] was 2.52 µM (inactive). For the same compound, the GI50 [10] was > 100 µM (inactive), the GI50 [11] was 39.9 µM (inactive) and the GI50 [12] was > 100 µM (inactive). The GI50 [13] was 19.5 µM (inactive), the GI50 [14] was 39.9 µM (inactive) and the GI50 [15] was 30 µM (inactive). For the same compound, the GI50 [16] was 50.4 µM (inactive), the GI50 [17] was 23.9 µM (inactive) and the GI50 [18] was 41.5 µM (inactive). The GI50 [20] was > 100 µM (inactive), the GI50 [21] was 17.6 µM (inactive) and the GI50 [57] was 26.4 µM (inactive). The GI50 [22] was 23.8 µM (inactive), the GI50 [23] was 38 µM (inactive) and the GI50 [24] was 36.1 µM (inactive). For the same compound, the GI50 [25] was 3.44 µM (inactive), the GI50 [58] was 15.8 µM (inactive) and the GI50 [26] was 52.5 µM (inactive). The GI50 [27] was 31 µM (inactive), the GI50 [28] was 42.7 µM (inactive) and the GI50 [29] was 12.3 µM. The GI50 [30] was 21.9 µM (inactive), the GI50 [31] was 71.9 µM (inactive) and the GI50 [32] was 19.8 µM (inactive). For the same compound, the GI50 [33] was 26.9 µM (inactive), the GI50 [34] was 18.7 µM (inactive) and the GI50 [35] was 54.3 µM (inactive). For the same compound, the GI50 [37] was 45.6 µM (inactive), the GI50 [38] was 45.2 µM (inactive) and the GI50 [39] was 67.5 µM (inactive). The GI50 [40] was 22.2 µM (inactive), the GI50 [41] was > 100 µM (inactive) and the GI50 [42] was 57 µM (inactive). The GI50 [43] was > 100 µM (inactive), the GI50 [44] was 38.5 µM (inactive) and the GI50 [45] was 32.4 µM (inactive). For the same compound, the GI50 [46] was 26.7 µM (inactive), the GI50 [47] was 33.7 µM (inactive) and the GI50 [48] was 35.9 µM (inactive). The GI50 [49] was 21.5 µM (inactive), the GI50 [50] was 96.8 µM (inactive) and the GI50 [52] was 8.18 µM (inactive). For the same compound, the GI50 [53] was > 10 µM (inactive), the GI50 [54] was 29.4 µM (inactive) and the GI50 [55] was 38 µM (inactive).
